The record followed here is ChEMBL document CHEMBL1125058 (J Med Chem, 1990).

Data set [1] has as its target T1, Aromatase (Homo sapiens, UniProt P11511).
T1 sequence (P11511 whole entry): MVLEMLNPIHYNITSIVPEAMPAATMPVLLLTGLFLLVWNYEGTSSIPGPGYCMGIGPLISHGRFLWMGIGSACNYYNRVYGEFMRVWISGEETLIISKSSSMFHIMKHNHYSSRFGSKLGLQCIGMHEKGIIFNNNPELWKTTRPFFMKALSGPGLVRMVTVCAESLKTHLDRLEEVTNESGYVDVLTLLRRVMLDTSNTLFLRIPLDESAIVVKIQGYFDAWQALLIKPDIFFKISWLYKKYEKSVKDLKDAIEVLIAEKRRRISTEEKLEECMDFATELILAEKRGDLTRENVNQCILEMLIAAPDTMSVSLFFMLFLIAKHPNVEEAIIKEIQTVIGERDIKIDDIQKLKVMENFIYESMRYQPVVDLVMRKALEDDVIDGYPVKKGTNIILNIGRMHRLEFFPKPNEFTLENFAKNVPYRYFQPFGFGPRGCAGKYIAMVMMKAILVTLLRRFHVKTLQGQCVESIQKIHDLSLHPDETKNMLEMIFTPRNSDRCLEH
Description: Inhibition of Cytochrome P450 19A1 in human placenta

A short description of data set [2]: Compound was evaluated for the spectral dissociation constant. It counts as ADME. The conditions noted are these: read-out: Ks.

As to `CCCCCCC[C@]1(c2ccncc2)CCC(=O)NC1=O`, in data set [1], the IC50 was 3200 nM.

In the case of `CCCCCCCCN1C(=O)CCC(CC)(c2ccncc2)C1=O` (centres undefined), the Kd in data set [2] is 510 nM.

On to `CCCCCC[C@]1(c2ccncc2)CCC(=O)NC1=O`, for which the IC50 in data set [1] was 3600 nM. This counts as single-digit micromolar.

Take `CCCCC[C@]1(c2ccncc2)CCC(=O)NC1=O`: in data set [1], the IC50 was found to be 2500 nM. This IC50 and that of the molecule before are within 1.5-fold of each other.
